Experimental data published in patent publication US20260232681A1, “CRYSTALLINE FORMS OF N-[4-[4-(4-MORPHOLINYL)-7H-PYRROLO[2,3-D]PYRIMIDIN-6- YL]PHENYL]-4-[[3(R)-[(L-OXO-2-PROPEN-L-YL)AMINO]-L-PIPERIDINYL]METHYL]-2-PYRIDINECARBOXAMIDE AS A COVALENT INHIBITOR OF MENIN-MLL INTERACTION” (BIOMEA FUSION, INC., priority 2023, published 2026).
“Also recorded” adds a separate entry of the source. Read-outs that look alike come from different tables or passages of the source.

How the values were obtained:
[1] = system: Zucker Diabetic Fatty (ZDF) rats; assay: Glycemic control in ZDF rats, 16-day dosing plus two-week washout (Examples 102, 105); assay type: in vivo, rat
Description: The present examples provides the ability of Compound 10 to restore glycemic control to diabetic Zucker diabetic fatty rats (ZDF rats, genotype ZDF-Lepr^fa/Crl; Charles River). Cornicelli et al., 2005, Charles River.
Control and test compounds were stored at 4° C. and prepared weekly as needed. The vehicle for positive control pioglitazone was 0.25% carboxymethylcellulose and 1% Tween® 80 in reverse osmosis deionized water. The vehicle for Compound 10 was 10% DMSO, 10% Solutol HS 15, and 80% (10% hydroxypropyl-β-cyclodextrin in 50 mM citrate buffer at pH 3.0).
On Day −3, twenty-four ZDF rats (plus eight spare ZDF rats) were measured for body weight and non-fasting glucose. LabDiet 5008 was provided ad libitum throughout the study, except during designated procedures, as was water. In order to minimize the effects of stress on blood glucose and body, all animals including the spares received daily sham doses with phosphate buffered saline pH 7.2 (dose volume 5 mL/kg) via gavage beginning on Study Day −5 to Day −1.
Vehicle, control, and test compound were administered via oral gavage according to the following design on Days 1-16.
On Days −3, 1, 8, and 14 non-fasting blood glucose was measured. On Day 15, an oral glucose tolerance test was administered. The animals were weighed, and the animals were placed in clean cages without food. Access to water was provided throughout the procedure. The animals were fasted for five hours and a blood glucose measurement was determined. The animals were dosed via oral gavage with 2 g/kg glucose (10 mL/kg). Blood glucose was determined via tail snip. The second drop of blood from the animal was placed on a hand-held glucometer (Abbott Alpha Trak) at the following times relative to the glucose dose: zero (just prior to glucose dose), 15, 30, 60, 90, and 120 min. Following the final blood glucose measurement, food was returned to the cages. On Day 17, 4-hour fasting glucose was measured. Serum samples were used to measure insulin by ELISA. Analysis was performed in one to three days of each collections. On Day 17, terminal blood collection was obtained at about 8 mL per animal and measured for blood glucose.
ZDF rats were treated daily with Compound 10, vehicle, or pioglitazone for sixteen days and monitored for an additional two weeks post-treatment until Day 29. STZ rat models were induced through pre-treatment of animals on a high-fat diet with low doses of streptozotocin at Day −14 and Day −7 prior to starting treatment at Day Zero until Day 16. ZDF and STZ rats were monitored for fasting blood glucose levels, oral glucose tolerance test (OGTT), insulin and C-peptide levels, HOMA-IR (Homeostatic Model Assessment of Insulin Resistance), blood lipemic levels, and body weight according to the schematic for each model below. ZDF rats were analyzed for indicated readouts for fifteen days post-treatment for OGTT at Day 29, and serum insulin and C-peptide at Day 31.
ZDF Rat Model—three treatment groups 1. Vehicle; 2. Compound 10 at 175 mg/kg; and 3. Pioglitazone at 30 mg/kg; n=10 per group. Daily dosing zero to sixteen days QD→drug wash out at sixteen to twenty-nine days. Rats were monitored for the following parameters through dosing and wash out phases—body weight, fasting blood sugar, blood insulin, C-peptide, and OGTT.

[2] = system: KRAS mutated cell lines (CRC, NSCLC, pancreatic); assay: KRAS mutant cell line proliferation (CellTiter-Glo, four days); assay type: cell-based, human; settings: for GI50: Homo sapiens
Description: The inhibitory effect on cell proliferation was investigated in the human pancreas KRAS mutated cell lines MIA PaCa-2, HuP-T4, HPAF-II, human lung KRAS mutated cell line NCI-H358, and human colon KRAS mutated cell lines SW837, SW60, and NCI-H747. […] Cells were grown by adhering to culture flasks, and maintained at 70%-80% confluency.
ATP is present in all metabolically active cells and is considered as a marker for viable cells. […] The cell proliferation assay was performed using a 96-well plate format.
Eight concentrations of test compound were assessed in duplicate for each experimental run. 100% cell proliferation is represented by the untreated cells (0.2% DMSO).
200 μL of cell suspension were added to each well of a 96-well plate.
Cell viability was measured using CellTiterGlo. […] Cell viability was measured using CellTiter Glo.

[3] = 16 days treatment, listed as Compound 10

For `C=CC(=O)N[C@@H]1CCCN(Cc2ccnc(C(=O)Nc3ccc(-c4cc5c(N6CCOCC6)ncnc5[nH]4)cc3)c2)C1` [Compound A, N-[4-[4-(4-morpholinyl)-7H-pyrrolo[2,3-d]pyrimidin-6-yl]phenyl]-4-[[3(R)-[(1-oxo-2-propen-1-yl)amino]-1-piperidinyl]methyl]-2-pyridinecarboxamide], the blood lipemic levels [1, 3] was “significantly reduces; also recorded: Significant reductions”, the body weight [1, 3] was “reduces body weight; also recorded: Significant reductions” and the “oral glucose tolerance test, glucose control” value ([1]; Day 29, after fourteen days of no treatment) was “significant glucose control”. For the same compound, the “oral glucose tolerance test, glucose control” value ([1]; after fifteen days of treatment) was “significant glucose control”, the “serum insulin and C-peptide levels” value ([1]; after two weeks of treatment, p<0.05) was “significantly reduced” and the “insulin in the non-fasting and fasting states” value ([1]; compared to vehicle and control) was “significant reduction”. The “4-hour fasting insulin and glucose” value ([1]; no therapy for two weeks) was “increasing insulin and glucose lowering”, the “insulin resistance (HOMA-IR)” value ([1]; non-fasting and fasting, listed as Compound 10) was “significant reduction; also recorded: increases insulin sensitivity; also recorded: reduced” and the “glucose in the non-fasting and fasting states” value ([1]; oral gavage Days 1-16, compared to vehicle and control) was “significant reduction”. The C-peptide ([1]; two weeks after therapy) was “increasing C-peptide”, the GI50 ([2]; column 1: KRAS G12C, NSCLC (8), read-out: KRAS G12C GI50) was 360 to 570 nM and the GI50 ([2]; column 5: RAS WT, Pancreatic (4), read-out: RAS WT GI50) was 430 to 830 nM. The GI50 ([2]; column 8: KRAS G12D, Pancreatic (1) (second set of heads), read-out: KRAS G12D GI50) was 370 to 570 nM, the “growth inhibition of KRAS-mutated cell lines compared to a known KRAS therapeutic” value ([2]; all cancer cell types tested) was “significantly greater growth inhibition” and the inhibition of growth ([2]; most of fourteen CRC, NSCLC and pancreatic KRAS mutated cell lines, four-day treatment) was > 90%.
